Test results reported in US10745355B2, “Anti-cancer compounds” (THE UNIVERSITY OF SYDNEY, priority 2015, dated 2020).

Legend:
ALK = ALK (Homo sapiens, UniProt Q9UM73); assay: Kinase profiling (ProQinase 33PanQinase Activity Assay), ALK; type: biochemical; conditions: read-out: residual activity, ALK
Protocol: (§1) The kinase profiling of compound 1-08 at 10 and 50 μM was performed by ProQinase GmbH (Freiburg, Germany). A radiometric protein kinase assay (^33PanQinase® Activity Assay) and the non-radiometric ADP-Glo™ Assay (Promega, Madison, Wis., USA) were used for measuring kinase activity of 387 protein kinases and 13 lipid kinases, respectively. The results are shown in Table 3 (only the top 10 kinases are listed, and the selectivity score describes the portion of kinases inhibited more than 50% in relation to all tested kinases).

BRK = BRK (Homo sapiens, UniProt Q13882); assay: Kinase profiling (ProQinase 33PanQinase Activity Assay), BRK; type: biochemical; conditions: read-out: residual activity, BRK
Protocol: as §1

CSK = CSK (Homo sapiens, UniProt P41240); assay: Kinase profiling (ProQinase 33PanQinase Activity Assay), CSK; type: biochemical; conditions: read-out: residual activity, CSK
Protocol: as §1

EPHB1 = molecular target: T1, EPHB1 (Homo sapiens, UniProt P54762); assay: Kinase profiling (ProQinase 33PanQinase Activity Assay), EPHB1; type: biochemical; conditions: read-out: residual activity, EPHB1
T1 sequence (P54762 18-984): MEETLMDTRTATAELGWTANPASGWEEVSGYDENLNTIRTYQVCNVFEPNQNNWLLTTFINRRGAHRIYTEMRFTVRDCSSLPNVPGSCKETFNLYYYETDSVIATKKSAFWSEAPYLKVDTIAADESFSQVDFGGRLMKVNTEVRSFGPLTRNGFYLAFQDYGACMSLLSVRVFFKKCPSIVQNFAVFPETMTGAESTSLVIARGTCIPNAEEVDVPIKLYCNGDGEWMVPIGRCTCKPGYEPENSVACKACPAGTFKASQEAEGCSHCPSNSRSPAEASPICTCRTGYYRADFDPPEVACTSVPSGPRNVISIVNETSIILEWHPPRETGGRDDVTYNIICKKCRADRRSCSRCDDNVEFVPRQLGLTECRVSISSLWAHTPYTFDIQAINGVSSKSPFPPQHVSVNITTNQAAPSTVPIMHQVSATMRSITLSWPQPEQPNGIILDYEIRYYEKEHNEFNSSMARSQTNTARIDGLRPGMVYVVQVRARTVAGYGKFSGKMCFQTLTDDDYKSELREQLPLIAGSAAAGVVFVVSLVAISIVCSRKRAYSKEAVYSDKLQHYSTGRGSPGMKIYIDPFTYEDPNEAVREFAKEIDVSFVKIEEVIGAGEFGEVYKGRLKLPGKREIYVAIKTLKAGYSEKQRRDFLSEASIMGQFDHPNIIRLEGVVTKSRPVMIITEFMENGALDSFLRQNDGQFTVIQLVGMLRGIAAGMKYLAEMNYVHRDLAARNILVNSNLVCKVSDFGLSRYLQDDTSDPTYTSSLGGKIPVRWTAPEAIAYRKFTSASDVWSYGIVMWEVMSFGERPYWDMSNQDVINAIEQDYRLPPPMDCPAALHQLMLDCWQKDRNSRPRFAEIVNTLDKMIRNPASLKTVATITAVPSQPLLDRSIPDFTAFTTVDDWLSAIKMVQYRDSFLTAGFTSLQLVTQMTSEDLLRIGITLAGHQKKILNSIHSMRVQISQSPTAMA
Protocol: as §1

IGF1R = IGF1R (Homo sapiens, UniProt P08069); assay: Kinase profiling (ProQinase 33PanQinase Activity Assay), IGF1R; type: biochemical; conditions: read-out: residual activity, IGF1R
Protocol: as §1

LYN = LYN (Homo sapiens, UniProt P07948); assay: Kinase profiling (ProQinase 33PanQinase Activity Assay), LYN; type: biochemical; conditions: read-out: residual activity, LYN
Protocol: as §1

[1] = test system: 387 protein kinases and 13 lipid kinases; assay: Kinase profiling, selectivity score over the whole panel; type: biochemical
Protocol: as §1

[2] = test system: RN1 gliomaspheres (classical); assay: AlamarBlue cell viability assay, RN1 gliomaspheres; type: cell-based; conditions: 72 h of drug treatment, FIG. 11A
Protocol: (§2) FIGS. 11A-11B. Efficacy of SC-38 (referred to as “CMPD1”), compound 1-08 (referred to as “cmpd 13”), compound 1-18 (referred to as “cmpd 7”), and compound 1-38 (referred to as “cmpd 10”) in primary gliomaspheres representing two glioblastoma subtypes. (11A) RN1, classical, and (11B) WK1, mesenchymal. Cellular efficacy (EC50) of test compounds was determined using AlamarBlue cell viability assay after 72 h of drug treatment. Data are mean±SEM from 3 independent experiments performed in triplicate.
U87 and U251 cell lines were obtained from the European Collection of Cell Cultures (ECACC) through CellBank Australia. U87-EGFRvIII cell line was obtained from their lab of origin (Nishikawa et al., 1994, Proc Natl Acad Sci USA 91: 7727-7731) and tested for EGFR amplification and mutation by immunoblotting and flow cytometry. Cells were cultured in DMEM medium (Invitrogen by Life Technologies, Carlsbad, Calif., USA) supplemented with 10% FBS (Sigma-Aldrich) at 37° C. and 5% CO2. Primary gliomaspheres (RN1, classical; WK1, mesenchymal) were derived from glioblastoma specimens (Day et al., 2013, Cancers 5: 357-371; Day et al., 2013, Cancer Cell 23: 238-248), maintained in StemPro NSC serum-free media supplemented with EGF and FGF (all Life Technologies), and grown on matrigel-coated flasks (Pollard et al., 2009, Cell Stem Cell 4: 568-580). […]

[3] = test system: WK1 gliomaspheres (mesenchymal); assay: AlamarBlue cell viability assay, WK1 gliomaspheres; type: cell-based; conditions: 72 h of drug treatment, FIG. 11B
Protocol: as §2
U87 and U251 cell lines were obtained from the European Collection of Cell Cultures (ECACC) through CellBank Australia. U87-EGFRvIII cell line was obtained from their lab of origin (Nishikawa et al., 1994, Proc Natl Acad Sci USA 91: 7727-7731) and tested for EGFR amplification and mutation by immunoblotting and flow cytometry. Cells were cultured in DMEM medium (Invitrogen by Life Technologies, Carlsbad, Calif., USA) supplemented with 10% FBS (Sigma-Aldrich) at 37° C. and 5% CO2. Primary gliomaspheres (RN1, classical; WK1, mesenchymal) were derived from glioblastoma specimens (Day et al., 2013, Cancers 5: 357-371; Day et al., 2013, Cancer Cell 23: 238-248), maintained in StemPro NSC serum-free media supplemented with EGF and FGF (all Life Technologies), and grown on matrigel-coated flasks (Pollard et al., 2009, Cell Stem Cell 4: 568-580).
The effect of SC-38, and compounds 1-08, 1-18 and 1-38 in a cell viability assay employing patient-derived gliomaspheres was also investigated. RN1 gliomaspheres representing glioblastoma of the classical subtype were most responsive to the treatment (FIG. 11, where SC-38 is referred to as “CMPD1”, compound 1-08 is referred to as “compound 13”, compound 1-18 is referred to as “compound 7”, and compound 1-38 is referred to as “compound 10”).

ALK, sequence (Q9UM73 19-1620): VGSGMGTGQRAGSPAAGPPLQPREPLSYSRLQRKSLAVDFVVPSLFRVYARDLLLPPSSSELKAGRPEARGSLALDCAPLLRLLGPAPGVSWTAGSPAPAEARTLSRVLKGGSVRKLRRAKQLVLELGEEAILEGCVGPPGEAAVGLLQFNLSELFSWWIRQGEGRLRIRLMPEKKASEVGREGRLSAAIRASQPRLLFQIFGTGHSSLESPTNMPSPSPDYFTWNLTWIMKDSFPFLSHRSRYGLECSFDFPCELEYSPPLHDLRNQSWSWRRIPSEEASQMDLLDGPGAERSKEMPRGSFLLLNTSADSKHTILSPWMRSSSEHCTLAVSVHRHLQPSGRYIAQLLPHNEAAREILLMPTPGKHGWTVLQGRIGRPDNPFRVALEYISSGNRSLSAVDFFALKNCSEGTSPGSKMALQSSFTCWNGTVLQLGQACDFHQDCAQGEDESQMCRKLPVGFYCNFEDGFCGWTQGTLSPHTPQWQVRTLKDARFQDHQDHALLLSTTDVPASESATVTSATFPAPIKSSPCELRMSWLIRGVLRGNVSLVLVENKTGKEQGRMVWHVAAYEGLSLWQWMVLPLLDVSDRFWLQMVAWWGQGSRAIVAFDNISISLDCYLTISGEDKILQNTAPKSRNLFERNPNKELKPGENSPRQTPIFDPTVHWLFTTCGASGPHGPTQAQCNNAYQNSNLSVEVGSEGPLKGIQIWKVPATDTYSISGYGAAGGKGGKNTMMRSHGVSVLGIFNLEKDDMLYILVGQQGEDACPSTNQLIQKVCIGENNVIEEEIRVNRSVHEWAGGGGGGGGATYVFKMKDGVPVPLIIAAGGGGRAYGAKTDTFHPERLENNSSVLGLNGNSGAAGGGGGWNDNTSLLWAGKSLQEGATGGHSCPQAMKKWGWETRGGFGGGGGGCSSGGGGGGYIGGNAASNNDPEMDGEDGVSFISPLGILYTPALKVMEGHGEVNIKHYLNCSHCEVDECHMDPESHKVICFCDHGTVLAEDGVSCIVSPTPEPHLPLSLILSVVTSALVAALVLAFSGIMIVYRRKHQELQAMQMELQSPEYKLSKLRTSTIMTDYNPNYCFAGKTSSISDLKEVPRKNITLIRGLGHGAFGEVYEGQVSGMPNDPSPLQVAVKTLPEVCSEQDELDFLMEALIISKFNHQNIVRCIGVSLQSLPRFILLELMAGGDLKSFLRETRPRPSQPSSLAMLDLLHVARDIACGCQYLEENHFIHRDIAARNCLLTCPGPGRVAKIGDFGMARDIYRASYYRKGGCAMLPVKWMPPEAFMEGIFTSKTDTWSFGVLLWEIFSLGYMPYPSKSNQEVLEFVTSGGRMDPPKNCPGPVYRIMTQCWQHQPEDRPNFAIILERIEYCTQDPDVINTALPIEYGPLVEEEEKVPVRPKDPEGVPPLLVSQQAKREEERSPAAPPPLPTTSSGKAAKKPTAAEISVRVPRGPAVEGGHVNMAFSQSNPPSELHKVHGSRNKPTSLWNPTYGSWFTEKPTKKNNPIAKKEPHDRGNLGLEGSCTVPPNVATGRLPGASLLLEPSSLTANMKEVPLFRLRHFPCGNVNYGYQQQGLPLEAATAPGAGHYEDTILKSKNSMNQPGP
IGF1R, sequence (P08069 31-1367): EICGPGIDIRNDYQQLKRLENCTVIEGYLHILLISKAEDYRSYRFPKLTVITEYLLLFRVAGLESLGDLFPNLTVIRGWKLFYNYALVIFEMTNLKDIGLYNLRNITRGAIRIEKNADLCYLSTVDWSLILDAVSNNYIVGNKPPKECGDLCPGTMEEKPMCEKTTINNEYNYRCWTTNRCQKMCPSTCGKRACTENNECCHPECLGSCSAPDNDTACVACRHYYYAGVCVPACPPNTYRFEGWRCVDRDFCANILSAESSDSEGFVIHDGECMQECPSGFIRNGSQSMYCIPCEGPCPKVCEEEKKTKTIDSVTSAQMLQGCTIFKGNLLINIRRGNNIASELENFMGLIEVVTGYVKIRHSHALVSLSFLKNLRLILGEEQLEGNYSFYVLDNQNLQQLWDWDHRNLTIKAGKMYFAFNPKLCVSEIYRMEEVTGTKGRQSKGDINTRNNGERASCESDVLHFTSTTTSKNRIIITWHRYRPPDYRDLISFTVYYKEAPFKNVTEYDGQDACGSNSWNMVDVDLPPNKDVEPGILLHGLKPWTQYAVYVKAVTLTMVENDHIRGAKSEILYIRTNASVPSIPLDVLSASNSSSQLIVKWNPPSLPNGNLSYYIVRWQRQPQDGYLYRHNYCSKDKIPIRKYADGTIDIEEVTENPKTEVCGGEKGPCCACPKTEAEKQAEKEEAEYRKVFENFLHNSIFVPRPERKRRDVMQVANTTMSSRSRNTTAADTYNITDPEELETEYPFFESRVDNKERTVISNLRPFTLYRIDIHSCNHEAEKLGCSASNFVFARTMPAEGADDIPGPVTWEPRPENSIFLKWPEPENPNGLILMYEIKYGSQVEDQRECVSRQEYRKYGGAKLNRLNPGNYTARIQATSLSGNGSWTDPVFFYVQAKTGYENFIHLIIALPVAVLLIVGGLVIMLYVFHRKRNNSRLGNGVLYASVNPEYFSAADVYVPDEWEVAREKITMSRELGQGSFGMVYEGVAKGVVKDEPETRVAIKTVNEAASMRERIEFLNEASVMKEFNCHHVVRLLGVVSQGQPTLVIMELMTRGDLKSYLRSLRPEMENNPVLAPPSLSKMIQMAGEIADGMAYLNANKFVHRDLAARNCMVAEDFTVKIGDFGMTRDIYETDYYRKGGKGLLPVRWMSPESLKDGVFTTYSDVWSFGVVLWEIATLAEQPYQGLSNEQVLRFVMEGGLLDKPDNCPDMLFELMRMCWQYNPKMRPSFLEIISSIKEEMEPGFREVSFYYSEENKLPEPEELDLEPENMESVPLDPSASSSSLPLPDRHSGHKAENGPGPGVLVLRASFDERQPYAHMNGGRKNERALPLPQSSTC
BRK, sequence (Q13882 whole entry): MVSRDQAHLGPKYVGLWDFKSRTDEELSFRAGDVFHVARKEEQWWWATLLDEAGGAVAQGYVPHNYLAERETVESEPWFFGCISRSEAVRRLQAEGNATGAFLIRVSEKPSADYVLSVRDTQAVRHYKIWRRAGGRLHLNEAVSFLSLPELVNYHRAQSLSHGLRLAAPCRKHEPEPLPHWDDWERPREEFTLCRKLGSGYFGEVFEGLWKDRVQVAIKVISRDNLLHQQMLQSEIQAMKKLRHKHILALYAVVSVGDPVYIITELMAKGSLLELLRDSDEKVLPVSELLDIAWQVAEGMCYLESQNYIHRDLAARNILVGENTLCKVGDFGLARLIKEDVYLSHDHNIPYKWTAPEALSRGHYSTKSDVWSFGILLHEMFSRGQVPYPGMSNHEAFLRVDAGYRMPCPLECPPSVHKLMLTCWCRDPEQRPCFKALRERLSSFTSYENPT
LYN, sequence (P07948 whole entry): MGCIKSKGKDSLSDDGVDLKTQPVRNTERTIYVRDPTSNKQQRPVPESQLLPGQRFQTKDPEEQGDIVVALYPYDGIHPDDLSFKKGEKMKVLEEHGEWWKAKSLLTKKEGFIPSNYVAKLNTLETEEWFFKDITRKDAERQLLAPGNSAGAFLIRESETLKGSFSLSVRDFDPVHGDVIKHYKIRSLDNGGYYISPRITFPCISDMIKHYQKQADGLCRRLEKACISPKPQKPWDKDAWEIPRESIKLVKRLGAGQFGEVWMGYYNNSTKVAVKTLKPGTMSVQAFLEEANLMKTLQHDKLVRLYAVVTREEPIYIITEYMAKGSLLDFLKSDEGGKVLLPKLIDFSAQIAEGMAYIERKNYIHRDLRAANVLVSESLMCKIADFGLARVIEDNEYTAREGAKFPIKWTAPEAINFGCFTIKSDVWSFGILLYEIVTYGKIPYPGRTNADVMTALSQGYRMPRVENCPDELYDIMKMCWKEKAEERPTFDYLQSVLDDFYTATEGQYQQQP
CSK, sequence (P41240 whole entry): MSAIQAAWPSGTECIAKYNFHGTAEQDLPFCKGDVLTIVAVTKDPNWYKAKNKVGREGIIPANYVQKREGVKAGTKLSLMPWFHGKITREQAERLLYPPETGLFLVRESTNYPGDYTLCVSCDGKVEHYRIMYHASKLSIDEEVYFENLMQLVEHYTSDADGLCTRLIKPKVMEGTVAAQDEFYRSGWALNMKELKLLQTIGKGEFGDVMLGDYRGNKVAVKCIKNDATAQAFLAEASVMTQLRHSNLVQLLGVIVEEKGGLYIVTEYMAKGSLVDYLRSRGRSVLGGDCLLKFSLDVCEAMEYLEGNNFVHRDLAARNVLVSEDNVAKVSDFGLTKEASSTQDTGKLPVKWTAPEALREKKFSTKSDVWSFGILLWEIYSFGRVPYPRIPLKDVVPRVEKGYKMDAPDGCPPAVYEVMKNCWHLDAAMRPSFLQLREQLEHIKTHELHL

With `O=C(CCCc1ccc(-c2cnc3ccccc3c2)cc1)Nc1ccc(O)cc1` [Compound 1-08, N-(4-hydroxyphenyl)-4-(4-(quinolin-3-yl)phenyl)butanamide] the remaining activity at 10 µM (ALK; 10 μM compound) was 76%, the remaining activity at 50 µM (ALK; 50 μM compound) was 21% and the remaining activity at 10 µM (BRK; 10 μM compound) was 74%. The remaining activity at 50 µM (BRK; 50 μM compound) was 29%, the remaining activity at 10 µM (CSK; 10 μM compound) was 89% and the remaining activity at 50 µM (CSK; 50 μM compound) was 21%. It also gave a remaining activity at 10 µM (EPHB1; 10 μM compound) of 57%, a remaining activity at 50 µM (EPHB1; 50 μM compound) of 20% and a remaining activity at 10 µM (IGF1R; 10 μM compound) of 73%. For the same compound, the remaining activity at 50 µM (IGF1R; 50 μM compound) was 15%, the remaining activity at 10 µM (LYN; 10 μM compound) was 87% and the remaining activity at 50 µM (LYN; 50 μM compound) was 21%. The “Selectivity score (portion of kinases inhibited more than 50% in relation to all tested kinases)” value ([1]; 10 μM compound) was 0.003, the “Selectivity score (portion of kinases inhibited more than 50% in relation to all tested kinases)” value ([1]; 50 μM compound) was 0.203 and the EC50 [2] was 540 nM. It also gave an EC50 [3] of 3820 nM.
